Where two headings read alike, the source gives them in different places.
Assays:
3T3-L1 fat cells = experiment: Basal lipolysis and turnover of esterified fatty acids (glycerol release, NMR, GLC); format: cell-based; settings: for 8:0 acyl chains in cellular TG: means ± S.E.M.; for [1-13C]fatty acid remaining esterified in TG: NMR, ±S.E.M.
Description: Measurement of basal lipolysis. […] Control cultures were terminated at this time, and cells were homogenated for TG and DNA analysis. After aliquots were taken for these analyses, cellular lipids were extracted for NMR and GLC analysis. Parallel cultures were washed three times with PBS solution and incubated with serum-free DMEM containing 1% BSA, conditions that favour basal lipolysis. At the end of the incubation, media were aspirated and assayed for glycerol (Sigma procedure no. 337A [27]), and the cells were harvested for analysis as described above.
Quantification of ^13C label incorporation into cellular TG from the NMR peak intensity. The ^13C-NMR spectra were obtained at 125 MHz on a Bruker DMX-500 spectrometer with a 5-mm triple resonance probe (Bilerica, Mass., U.S.A.). Other details have been described in our previous reports. The absolute intensities of ^13C═O signals were measured by reference to an internal standard. […] Therefore, the signal intensity from direct incorporation of [1-^13C]octanoate was obtained by subtracting the background signal from control.
Methylation of TG and GLC analysis of fatty acyl composition. The lipid components of cell extracts were separated by TLC (hexane/ethyl ether/acetic acid, 70:30:1). Methylation was performed by incubation in BF3-methanol solution (14%, v/v, BF3 in methanol) at 60° C. for 30 min. The fatty acid methyl ester was extracted into a hexane solution. The hexane solution was dried with anhydrous sodium sulphate. To avoid the evaporation of methyl octanoate, the hexane solution was used directly for GLC study without further condensation. GLC analysis was performed on a Shimuzu 14A gas chromatograph with a Supelco SP™-2380 capillary column with an initial oven temperature of 150° C., final temperature of 240° C., heating rate of 4° C./min, injector temperature of 220° C. and detector temperature of 240° C. Carrier gas (He) was at 50 kPa, make-up carrier gas (He) at 100 kPa, hydrogen gas at 55 kPa and compressed air at 50 kPa. The sample was injected in 1-1.5 μl with splitting rate of 1:25.

3T3-L1 cells = experiment: Fatty acid induced differentiation (cellular TG content, G3PD activity), no MDI; format: cell-based; settings: for G3PD / TG: basal medium with insulin 2.5 μg/ml, no MDI, means ± S.E.M., n=3; for Cell loss after extended fatty acid incubation: microscopy, corroborated by DNA analysis; for Time after incubation at which lipid droplets began to appear: undifferentiated cells, not treated with MDI
Description: Fatty acid induced differentiation. […] The 5:1 molar ratio of FFA/BSA promotes net transfer of FFA from BSA-binding sites to cells. No MDI treatment was applied to these cultures.
Measurement of total cellular DNA, TG and G3PD activity. […] G3PD was measured by following the disappearance of NADH during enzyme-catalysed dihydroxyacetone phosphate reduction under zero-order conditions.

3T3L1 fat cells = experiment: TG storage and plasma membrane phospholipid fatty acid composition, oleate/linoleate with octanoate; format: cell-based
Description: This reduced the cellular TG storage from 41.5 to 27.0 μg/μgDNA. The fatty acid composition in the plasma membrane phospholipids (FIG. 15) was less drastically affected by exogenous fatty acids than that in the TG fraction (FIG. 14).

[1] = 6 h intravenous infusion of octanoic acid, cited from earlier work
3T3-L1 adipocytes [2] = experiment: 13C-NMR incorporation of [1-13C]FFA into cellular TG; format: cell-based
Description: Incubation with [1-^13C]FFA. […] At termination, cells were washed three times with an ice-cold solution (pH 7.4) containing sucrose (250 mM), Tris (10 mM) and 2-mercaptoethanol (1 mM), scraped into the above solution containing additional EDTA (0.2 mM) and homogenized. Aliquots of the homogenate were stored at −80° C. for DNA and TG analysis. Aliquots for glycerol-3-phosphate dehydrogenase (G3PD) analysis were centrifuged at 44000 g for 20 min and the supernatants were stored at −80° C. until analysis. The homogenates were then extracted for lipids for NMR studies as described previously.
Quantification of ^13C label incorporation into cellular TG from the NMR peak intensity. The ^13C-NMR spectra were obtained at 125 MHz on a Bruker DMX-500 spectrometer with a 5-mm triple resonance probe (Bilerica, Mass., U.S.A.). Other details have been described in our previous reports. The absolute intensities of ^13C═O signals were measured by reference to an internal standard. […] For cells incubated with [1-^13C]octanoate, the signals from direct incorporation of [1-^13C]octanoate were less intense than the C═O signals from unlabelled TG (FIG. 1B; signals from unlabelled saturated acyl chains overlapped those of esterified [1-^13C]octanoate, but were generally 30-40% of their unsaturated counterparts in control cultures). Therefore, the signal intensity from direct incorporation of [1-^13C]octanoate was obtained by subtracting the background signal from control. This may not be completely accurate when octanoate incorporation is very limited.

3T3-L1 adipocytes [3] = experiment: Partitioning of [1-14C]FFA between CO2 production and TG incorporation; format: cell-based; settings: for Exogenous fatty acid converted into CO2 / Exogenous fatty acid converted into TG: 60 min, 1 mM fatty acid in 0.2 mM BSA, means ± S.E.M., n=3
Description: Partitioning of [1-^14C]FFA between CO2production7 and TG incorporation. 3T3-L1 cells were prepared in T25 culture flasks. […] The incubation was terminated after 60 min. ^14CO2 released from fatty acid oxidation was collected and quantified using a published protocol. The cellular lipids were extracted and separated by TLC. The TG fraction was scraped off and dissolved in Ecosin-A solution for scintillation counting. […] Cellular DNA was measured in parallel cultures.

[4] = After 96 h incubation with DMEM (1% BSA)
[5] = After 96 h incubation with DMEM (1% BSA), n=3
[6] = Before 96 h incubation with DMEM (1% BSA)
[7] = Before 96 h incubation with DMEM (1% BSA), n=3
[8] = after 96-h incubation with DMEM, n=3
[9] = replacement of 20% oleate by octanoate

Compound: CCCCCCCC(=O)O [Octanoate, octanoate]
- Absolute amount of octanoate remaining in TG, of original amount (3T3-L1 fat cells; 96 h, total TG content doubled): about 20%
- 14:0 acyl chains in cellular TG (3T3-L1 fat cells; [4]): 3.88 ± 0.21%
- 14:1 acyl chains in cellular TG (3T3-L1 fat cells; [4]): 5.78 ± 0.11%
- 15:0 acyl chains in cellular TG (3T3-L1 fat cells; [4]): 1.63 ± 0.17%
- 15:1 acyl chains in cellular TG (3T3-L1 fat cells; [4]): 1.41 ± 0.09%
- 16:0 acyl chains in cellular TG (3T3-L1 fat cells; [4]): 24.45 ± 0.03%
- 16:1 acyl chains in cellular TG (3T3-L1 fat cells; [4]): 47.64 ± 0.34%
- 17:0 acyl chains in cellular TG (3T3-L1 fat cells; [4]): 0.85 ± 0.096%
- 17:1 acyl chains in cellular TG (3T3-L1 fat cells; [4]): 4.73 ± 0.12%
- 18:0 acyl chains in cellular TG (3T3-L1 fat cells; [4]): 0.51 ± 0.16%
- 18:1 n9 acyl chains in cellular TG (3T3-L1 fat cells; [4]): 6.2 ± 0.29%
- 18:1 n11 acyl chains in cellular TG (3T3-L1 fat cells; [4]): 1.95 ± 0.13%
- 8:0 acyl chains in cellular TG (3T3-L1 fat cells; [5]): 0.99 ± 0.05%
- 14:0 acyl chains in cellular TG (3T3-L1 fat cells; [6]): 3.74 ± 0.04%
- 14:1 acyl chains in cellular TG (3T3-L1 fat cells; [6]): 5.56 ± 0.29%
- 15:0 acyl chains in cellular TG (3T3-L1 fat cells; [6]): 1.43 ± 0.14%
- 15:1 acyl chains in cellular TG (3T3-L1 fat cells; [6]): 1.4 ± 0.14%
- 16:0 acyl chains in cellular TG (3T3-L1 fat cells; [6]): 24.62 ± 0.35%
- 16:1 acyl chains in cellular TG (3T3-L1 fat cells; [6]): 38.61 ± 0.2%
- 17:0 acyl chains in cellular TG (3T3-L1 fat cells; [6]): 0.9 ± 0.03%
- 17:1 acyl chains in cellular TG (3T3-L1 fat cells; [6]): 3.89 ± 0.1%
- 18:0 acyl chains in cellular TG (3T3-L1 fat cells; [6]): 0.49 ± 0.02%
- 18:1 n9 acyl chains in cellular TG (3T3-L1 fat cells; [6]): 6.69 ± 0.09%
- 18:1 n11 acyl chains in cellular TG (3T3-L1 fat cells; [6]): 2.34 ± 0.05%
- 8:0 acyl chains in cellular TG (3T3-L1 fat cells; [7]): 10.33 ± 0.3%
- [1-13C]fatty acid remaining esterified in TG (3T3-L1 fat cells; [8]): About 21±1.2%
- Proportion of octanoate in total stored fatty acids (3T3-L1 fat cells; [8]): about 1±0.1%
- Octanoate incorporation, share of total acyl composition (3T3-L1 fat cells; before incubation with DMEM, n=3): 10±0.9%
- G3PD (3T3-L1 cells; Day 6): 0.09 ± 0.01 nmol/min per μg of DNA
- TG (3T3-L1 cells; Day 6): 0.1 ± 0.02 μg/μg of DNA
- G3PD (3T3-L1 cells; Day 9): 0.2 ± 0.01 nmol/min per μg of DNA
- TG (3T3-L1 cells; Day 9): 0.6 ± 0.04 μg/μg of DNA
- Cell loss after extended fatty acid incubation (3T3-L1 cells): less significant
- Time after incubation at which lipid droplets began to appear (3T3-L1 cells): 6 days
- Cellular TG storage (3T3L1 fat cells; oleate/linoleate, without or with 20% (wt %) of oleate replaced by octanoate): 27.0 μg/μgDNA
- Decrease in MUFA in plasma membrane phospholipids (3T3L1 fat cells; [9]): ~15%
- Increase in PUFA in plasma membrane phospholipids (3T3L1 fat cells; [9]): ~20%
- Increase in SFA in plasma membrane phospholipids (3T3L1 fat cells; [9]): ~10%
- Octanoate recovered as CO2 ([1]; fasted rats): ≤ 90%
- Octanoate recovered as CO2 ([1]; fed rats): up to 82%
- Peak intensity ratio TG(1,3)/TG(2) (3T3-L1 adipocytes [2]; 2.0 = random access to the three glycerol carbons): higher than 2.0
- Octanoate share of total acyl chains stored, molar scale (3T3-L1 adipocytes [2]; converted to a molar scale): 20%
- Amount partitioned into de novo synthesis of LCFA (3T3-L1 adipocytes [2]; detected by 13C-NMR): less than 16%
- Saturated octanoate incorporation, share of total fatty acids stored (3T3-L1 adipocytes [2]; fat cells): about 10%
- Time at which accumulation into TG reached a plateau (3T3-L1 adipocytes [2]; within a 24-h period): 7 h
- Actual amount of CO2 produced from octanoate relative to exogenous oleate (3T3-L1 adipocytes [3]; 8 vs 18 CO2 per acyl chain): about 3 fold
- Exogenous fatty acid converted into CO2 (3T3-L1 adipocytes [3]): 8.4 ± 1.2 nmol/h per μg of DNA
- Exogenous fatty acid converted into TG (3T3-L1 adipocytes [3]): 0.9 ± 0.1 nmol/h per μg of DNA

Compound: CCCCCCCC/C=C\CCCCCCCC(=O)O [Oleate, oleate, reference compound]
- 14:0 acyl chains in cellular TG (3T3-L1 fat cells; [4]): 3.28 ± 0.02%
- 14:1 acyl chains in cellular TG (3T3-L1 fat cells; [4]): 5.48 ± 0.03%
- 15:0 acyl chains in cellular TG (3T3-L1 fat cells; [4]): 1.36 ± 0.02%
- 15:1 acyl chains in cellular TG (3T3-L1 fat cells; [4]): 1.24 ± 0.09%
- 16:0 acyl chains in cellular TG (3T3-L1 fat cells; [4]): 23.65 ± 0.03%
- 16:1 acyl chains in cellular TG (3T3-L1 fat cells; [4]): 38.65 ± 0.2%
- 17:0 acyl chains in cellular TG (3T3-L1 fat cells; [4]): 0.75 ± 0.03%
- 17:1 acyl chains in cellular TG (3T3-L1 fat cells; [4]): 3.98 ± 0.07%
- 18:0 acyl chains in cellular TG (3T3-L1 fat cells; [4]): 0.41 ± 0.02%
- 18:1 n9 acyl chains in cellular TG (3T3-L1 fat cells; [4]): 19.71 ± 0.02%
- 18:1 n11 acyl chains in cellular TG (3T3-L1 fat cells; [4]): 1.51 ± 0.12%
- 8:0 acyl chains in cellular TG (3T3-L1 fat cells; [5]): 0%
- 14:0 acyl chains in cellular TG (3T3-L1 fat cells; [6]): 2.84 ± 0.09%
- 14:1 acyl chains in cellular TG (3T3-L1 fat cells; [6]): 4.75 ± 0.08%
- 15:1 acyl chains in cellular TG (3T3-L1 fat cells; [6]): 0.81 ± 0.01%
- 16:0 acyl chains in cellular TG (3T3-L1 fat cells; [6]): 20.01 ± 0.36%
- 16:1 acyl chains in cellular TG (3T3-L1 fat cells; [6]): 27.34 ± 0.29%
- 17:0 acyl chains in cellular TG (3T3-L1 fat cells; [6]): 0.82 ± 0.03%
- 17:1 acyl chains in cellular TG (3T3-L1 fat cells; [6]): 3.31 ± 0.26%
- 18:0 acyl chains in cellular TG (3T3-L1 fat cells; [6]): 0.38 ± 0.04%
- 18:1 n9 acyl chains in cellular TG (3T3-L1 fat cells; [6]): 36.4 ± 0.4%
- 18:1 n11 acyl chains in cellular TG (3T3-L1 fat cells; [6]): 1.35 ± 0.07%
- 8:0 acyl chains in cellular TG (3T3-L1 fat cells; [7]): 0%
- Decline of proportion of oleate in cellular TG (3T3-L1 fat cells; after 96-h incubation with DMEM, GLC): 50%
- [1-13C]fatty acid remaining esterified in TG (3T3-L1 fat cells; [8]): over 99±3.3%
- G3PD (3T3-L1 cells; Day 6): 0.45 ± 0.02 nmol/min per μg of DNA
- TG (3T3-L1 cells; Day 6): 1.7 ± 0.2 μg/μg of DNA
- G3PD (3T3-L1 cells; Day 9): 1.7 ± 0.1 nmol/min per μg of DNA
- TG (3T3-L1 cells; Day 9): 5.1 ± 0.3 μg/μg of DNA
- Cell loss after extended fatty acid incubation (3T3-L1 cells): ~20%
- Oleate share of accumulated TG (3T3-L1 cells; oleate-treated cells): > 80%
- Time after incubation at which lipid droplets began to appear (3T3-L1 cells): 3 days
- Exogenous fatty acid converted into CO2 (3T3-L1 adipocytes [3]): 0.7 ± 0.1 nmol/h per μg of DNA
- Exogenous fatty acid converted into TG (3T3-L1 adipocytes [3]): 7.6 ± 0.8 nmol/h per μg of DNA

From patent US20050019372A1, “Modified-fat nutritional products useful preventing or treating obesity” (priority 2001, published 2005)
